Assay results as given in ChEMBL document CHEMBL3885881, “DrugMatrix”.

Species: Rattus norvegicus
Assay: DrugMatrix - Regimen: Daily Repeat
Assay type: toxicity, organism-based, Sprague-Dawley
Parameters: regimen Daily Repeat, gender Male, age 6-8 weeks
Conditions: in vivo, […]; for NEUTROPHIL / PLATELET COUNT / ABSOLUTE BASOPHIL / ABSOLUTE EOSINOPHIL / ABSOLUTE LYMPHOCYTE / ABSOLUTE MONOCYTE / ABSOLUTE SEGMENTED NEUTROPHIL / BASOPHIL / EOSINOPHIL / ERYTHROCYTE COUNT / HEMATOCRIT / HEMOGLOBIN / LEUKOCYTE COUNT / LYMPHOCYTE / MEAN CORPUSCULAR HEMOGLOBIN / MEAN CORPUSCULAR HEMOGLOBIN CONCENTRATION / MEAN CORPUSCULAR VOLUME / MONOCYTE / NUCLEATED RED BLOOD CELLS: tissue Blood; for ALANINE AMINOTRANSFERASE / ALBUMIN / ALKALINE PHOSPHATASE / ASPARTATE AMINOTRANSFERASE / BLOOD UREA NITROGEN / CHLORIDE / CHOLESTEROL / CREATINE PHOSPHOKINASE / CREATININE / GLUCOSE / LACTATE DEHYDROGENASE / LIPASE / PHOSPHORUS / POTASSIUM / TOTAL BILIRUBIN / TOTAL PROTEIN / URIC ACID / SODIUM / CARBON DIOXIDE: tissue Plasma
[1] = ip, 2 mg/kg, route intraperitoneal, dose level High, time 28 day, vehicle 100 % SALINE
[2] = ip, 2 mg/kg, route intraperitoneal, dose level High, time 14 day, vehicle 100 % SALINE
[3] = po, 66 mg/kg, 72 h, route oral GAVAGE, dose level High, time 3 day
[4] = po, 66 mg/kg, 120 h, route oral GAVAGE, dose level High, time 5 day
[5] = po, 72 h, route oral GAVAGE, dose 6.6 mg/Kg, dose level Low, time 3 day
[6] = po, 120 h, route oral GAVAGE, dose 6.6 mg/Kg, dose level Low, time 5 day

CADMIUM DICHLORIDE
NEUTROPHIL [1]: 24.62%
PLATELET COUNT [1]: 1656.44 x10E3/uL
ALANINE AMINOTRANSFERASE [2]: 35.4 u/L
ALBUMIN [2]: 3.24 G/DL
ALKALINE PHOSPHATASE [2]: 169.6 u/L
ASPARTATE AMINOTRANSFERASE [2]: 182.2 u/L
BLOOD UREA NITROGEN [2]: 23.8 mg/dL
CHLORIDE [2]: 109.2 MEQ/L
CHOLESTEROL [2]: 58.2 mg/dL
CREATINE PHOSPHOKINASE [2]: 323 u/L
CREATININE [2]: 0.3 mg/dL
GLUCOSE [2]: 101 mg/dL
LACTATE DEHYDROGENASE [2]: 321.4 u/L
LIPASE [2]: 87.6 u/L
PHOSPHORUS [2]: 10.28 mg/dL
POTASSIUM [2]: 6.42 MEQ/L
TOTAL BILIRUBIN [2]: 0.26 mg/dL
TOTAL PROTEIN [2]: 5.94 G/DL
URIC ACID [2]: 2.08 mg/dL
ALANINE AMINOTRANSFERASE [1]: 39.44 u/L
ALKALINE PHOSPHATASE [1]: 111 u/L
ASPARTATE AMINOTRANSFERASE [1]: 167.44 u/L
BLOOD UREA NITROGEN [1]: 19.67 mg/dL
CHLORIDE [1]: 108.89 MEQ/L
CHOLESTEROL [1]: 51.67 mg/dL
CREATININE [1]: 0.44 mg/dL
GLUCOSE [1]: 106.78 mg/dL
LACTATE DEHYDROGENASE [1]: 230.56 u/L
LIPASE [1]: 45.56 u/L
POTASSIUM [1]: 6.7 MEQ/L
SODIUM [1]: 151 MEQ/L
TOTAL BILIRUBIN [1]: 0.28 mg/dL
TOTAL PROTEIN [1]: 6.61 G/DL
URIC ACID [1]: 1.71 mg/dL
ABSOLUTE BASOPHIL [3]: 0 CELLS/uL
ABSOLUTE EOSINOPHIL [3]: 54 CELLS/uL
ABSOLUTE LYMPHOCYTE [3]: 13921.33 CELLS/uL
ABSOLUTE MONOCYTE [3]: 108.67 CELLS/uL
ABSOLUTE SEGMENTED NEUTROPHIL [3]: 2549.33 CELLS/uL
BASOPHIL [3]: 0%
EOSINOPHIL [3]: 0.33%
ERYTHROCYTE COUNT [3]: 5.45 x10E6/uL
HEMATOCRIT [3]: 35.37%
HEMOGLOBIN [3]: 13.67 G/DL
LEUKOCYTE COUNT [3]: 16.63 x10E3/uL
LYMPHOCYTE [3]: 83.67%
MEAN CORPUSCULAR HEMOGLOBIN [3]: 25.13 pg
MEAN CORPUSCULAR HEMOGLOBIN CONCENTRATION [3]: 38.63 G/DL
MEAN CORPUSCULAR VOLUME [3]: 64.97 fL
MONOCYTE [3]: 0.67%
NEUTROPHIL [3]: 15.33%
NUCLEATED RED BLOOD CELLS [3]: 0 /100WBC
PLATELET COUNT [3]: 1218.67 x10E3/uL
ALANINE AMINOTRANSFERASE [3]: 57.67 u/L
ALBUMIN [3]: 4.1 G/DL
ALKALINE PHOSPHATASE [3]: 436 u/L
ASPARTATE AMINOTRANSFERASE [3]: 100 u/L
BLOOD UREA NITROGEN [3]: 12.33 mg/dL
CARBON DIOXIDE [3]: 25 mmol/L
CHOLESTEROL [3]: 60.33 mg/dL
CREATINE PHOSPHOKINASE [3]: 279.67 u/L
CREATININE [3]: 0.17 mg/dL
LACTATE DEHYDROGENASE [3]: 310 u/L
LIPASE [3]: 11.33 u/L
PHOSPHORUS [3]: 12.93 mg/dL
POTASSIUM [3]: 7.2 MEQ/L
TOTAL BILIRUBIN [3]: 0.2 mg/dL
TOTAL PROTEIN [3]: 5.77 G/DL
ABSOLUTE BASOPHIL [4]: 0 CELLS/uL
ABSOLUTE EOSINOPHIL [4]: 0 CELLS/uL
ABSOLUTE LYMPHOCYTE [4]: 13248 CELLS/uL
ABSOLUTE MONOCYTE [4]: 120 CELLS/uL
ABSOLUTE SEGMENTED NEUTROPHIL [4]: 1432 CELLS/uL
BASOPHIL [4]: 0%
EOSINOPHIL [4]: 0%
ERYTHROCYTE COUNT [4]: 5.79 x10E6/uL
HEMATOCRIT [4]: 35.4%
HEMOGLOBIN [4]: 14.15 G/DL
LEUKOCYTE COUNT [4]: 14.8 x10E3/uL
LYMPHOCYTE [4]: 88%
MEAN CORPUSCULAR HEMOGLOBIN [4]: 24.55 pg
MEAN CORPUSCULAR HEMOGLOBIN CONCENTRATION [4]: 39.95 G/DL
MEAN CORPUSCULAR VOLUME [4]: 61.35 fL
MONOCYTE [4]: 1%
NEUTROPHIL [4]: 11%
NUCLEATED RED BLOOD CELLS [4]: 0 /100WBC
PLATELET COUNT [4]: 1357 x10E3/uL
ALANINE AMINOTRANSFERASE [4]: 63 u/L
ALBUMIN [4]: 4.1 G/DL
ALKALINE PHOSPHATASE [4]: 217.5 u/L
ASPARTATE AMINOTRANSFERASE [4]: 122 u/L
BLOOD UREA NITROGEN [4]: 14 mg/dL
CARBON DIOXIDE [4]: 18.5 mmol/L
CHLORIDE [4]: 112 MEQ/L
CHOLESTEROL [4]: 36 mg/dL
CREATINE PHOSPHOKINASE [4]: 975 u/L
CREATININE [4]: 0.2 mg/dL
GLUCOSE [4]: 189 mg/dL
LACTATE DEHYDROGENASE [4]: 198.5 u/L
LIPASE [4]: 11.5 u/L
POTASSIUM [4]: 6.8 MEQ/L
TOTAL BILIRUBIN [4]: 0.1 mg/dL
TOTAL PROTEIN [4]: 5.5 G/DL
URIC ACID [4]: 2.35 mg/dL
ABSOLUTE BASOPHIL [5]: 0 CELLS/uL
ABSOLUTE EOSINOPHIL [5]: 0 CELLS/uL
ABSOLUTE LYMPHOCYTE [5]: 17172.67 CELLS/uL
ABSOLUTE MONOCYTE [5]: 193.33 CELLS/uL
ABSOLUTE SEGMENTED NEUTROPHIL [5]: 1767.33 CELLS/uL
BASOPHIL [5]: 0%
EOSINOPHIL [5]: 0%
ERYTHROCYTE COUNT [5]: 5.25 x10E6/uL
HEMATOCRIT [5]: 32.93%
HEMOGLOBIN [5]: 13.07 G/DL
LEUKOCYTE COUNT [5]: 19.13 x10E3/uL
MEAN CORPUSCULAR HEMOGLOBIN CONCENTRATION [5]: 39.7 G/DL
MONOCYTE [5]: 1%
NUCLEATED RED BLOOD CELLS [5]: 0 /100WBC
PLATELET COUNT [5]: 1216 x10E3/uL
ALANINE AMINOTRANSFERASE [5]: 81 u/L
ALBUMIN [5]: 4 G/DL
ALKALINE PHOSPHATASE [5]: 508.5 u/L
ASPARTATE AMINOTRANSFERASE [5]: 91.67 u/L
BLOOD UREA NITROGEN [5]: 11.67 mg/dL
CARBON DIOXIDE [5]: 26 mmol/L
CHOLESTEROL [5]: 77.33 mg/dL
CREATINE PHOSPHOKINASE [5]: 283.33 u/L
CREATININE [5]: 0.19 mg/dL
GLUCOSE [5]: 152.67 mg/dL
LACTATE DEHYDROGENASE [5]: 195 u/L
LIPASE [5]: 12.33 u/L
PHOSPHORUS [5]: 11.57 mg/dL
POTASSIUM [5]: 6.8 MEQ/L
TOTAL BILIRUBIN [5]: 0.2 mg/dL
TOTAL PROTEIN [5]: 5.57 G/DL
URIC ACID [5]: 1.3 mg/dL
ABSOLUTE BASOPHIL [6]: 0 CELLS/uL
ABSOLUTE EOSINOPHIL [6]: 0 CELLS/uL
ABSOLUTE LYMPHOCYTE [6]: 4729 CELLS/uL
ABSOLUTE MONOCYTE [6]: 0 CELLS/uL
ABSOLUTE SEGMENTED NEUTROPHIL [6]: 237.67 CELLS/uL
BASOPHIL [6]: 0%
EOSINOPHIL [6]: 0%
ERYTHROCYTE COUNT [6]: 5.13 x10E6/uL
HEMATOCRIT [6]: 30.77%
HEMOGLOBIN [6]: 12.03 G/DL
LEUKOCYTE COUNT [6]: 4.97 x10E3/uL
LYMPHOCYTE [6]: 94.67%
MEAN CORPUSCULAR HEMOGLOBIN [6]: 23.43 pg
MEAN CORPUSCULAR HEMOGLOBIN CONCENTRATION [6]: 39.13 G/DL
MONOCYTE [6]: 0%
NEUTROPHIL [6]: 5.33%
NUCLEATED RED BLOOD CELLS [6]: 0 /100WBC
PLATELET COUNT [6]: 996.33 x10E3/uL
ALANINE AMINOTRANSFERASE [6]: 78.67 u/L
ALKALINE PHOSPHATASE [6]: 485.67 u/L
ASPARTATE AMINOTRANSFERASE [6]: 93 u/L
BLOOD UREA NITROGEN [6]: 12.67 mg/dL
CARBON DIOXIDE [6]: 30 mmol/L
CHOLESTEROL [6]: 72.33 mg/dL
CREATINE PHOSPHOKINASE [6]: 141.33 u/L
CREATININE [6]: 0.16 mg/dL
GLUCOSE [6]: 141.33 mg/dL
LACTATE DEHYDROGENASE [6]: 102.33 u/L
LIPASE [6]: 11 u/L
POTASSIUM [6]: 6.24 MEQ/L
SODIUM [6]: 149.5 MEQ/L
TOTAL BILIRUBIN [6]: 0.2 mg/dL
URIC ACID [6]: 0.97 mg/dL
